Results reported in patent US20140316004A1, “TREATMENT OF POULTRY FOR REDUCING THE FEED CONVERSION RATE OR FOR REDUCING THE INCIDENCE OF ASCITES” (TAMINCO N.V., priority 2006, published 2014).

Experiments:
[1] = Broiler slaughter test: production performance (mortality, growth rate, feed conversion rate); assay type: in vivo, broilers; settings: 167 mg DMG per kg feed
From the text: (§1) To examine all the effects associated with the supplementation of dimethylglycine in fowl feed, a test was setup with broilers as model species. In this slaughter test with 64 broiler hens, 14-day old chickens were bred for 26 days, i.e. till the age of 40 days. At the beginning of the test the broilers were ad random divided in 16 groups of 4 specimens. The birds were fed with one type of feed from the first day on till the end of the test period. The type of feed was attributed on a random basis to the different housings. The animals were setup with a colored ring around their leg for identification purposes within each housing. The control feed was based on a commercial broiler crumble enriched with 5% corn oil to increase the oxidative stress in the feed. Further 1% celite was mixed into the feed as external marker to allow the determination of the apparent nutrient digestibility. The feed had the following composition: 87.65% dry matter, 6.13% ash, 18.05% crude protein, 9.13% crude fat, 4.32% crude fibre and 50.01% other carbohydrates (including 89% starch and 2% sugar). It has a (calculated) metabolizable energy value of about 13.4 MJ/kg.
(§2) In the second type of feed 167 mg of DMG was added per kilogram to the same composition of feed as described for the control feed. Over the entire test period, the broilers consumed on average about 25 mg DMG per bird per day. The housing of the broilers consisted out of circular housings with an open roof and bottom and with a total surface of 0.72 m^2. The material of the fencing was a flexible wire netting with a height of 1 m and mazes of 2×2 cm and thickness of 2 mm. The bottom was strewed with a thick layer of turf with on top a layer of wood-shavings. Feed and water were ad libitum available at all times. The average environmental temperature was maintained at 15° C. to increase the occurrence of ascites (Shlosberg A., Zadikov I., Bendheim U., Handji V., Berman E. Avian Pathology, 21, 369-382 (1992)). A conventional light scheme of 23 hours light:1 hour dark was applied
The daily growth during the two periods (between the first and fifteenth day and between the sixteenth and twentysixth day) was calculated for each surviving animal. The feed uptake for each housing was also measured during both periods. The commercial feed conversion rate was calculated for each of the housings for both periods (FCRI and FCR II) and for the total growth period. This commercial feed conversion rate was calculated by dividing the total feed consumption by the weight gain of the birds which stayed alive during the entire experiment, including also the feed consumption of the birds that died. To determine only the non-therapeutic effect of DMG on the feed conversion rate, the actual feed conversion rate of the living birds was also calculated more particularly on the basis of weight gain and the feed consumed by these living birds (based on the weight gain of the birds that died, the amount of feed consumed by these birds was detracted from the total feed consumption).

ascites [2] = experiment: Broiler slaughter test: incidence of ascites and ascites heart index at autopsy; assay type: in vivo, broilers
From the text: as §1, §2
Finally there was also an autopsy on all chickens. First, the carcass weight was determined by dissection of the head, the paws, evisceration and the deduction of the average feather weight. Next, the weight of the breast, buttock and thigh muscle were determined. Also the heart, liver and abdominal fat were measured. Macroscopic lesions related to ascites were visually reviewed and described as indicated by Scheele et al. (2003) (Scheele, C. W., Van Der Klis, J. D., Kwakernaak, C., Buys, N., Decuypere, E., British Poultry Science, 44(3), 484-489 (2003)), these were: accumulation of liquid in the abdomen, a hydropericard and right heart dilatation. The latter was quantified by the ascites heart index (AHD being the ratio of the dry weight of the right ventricle to the dry weight of both ventricles after freeze drying.

[3] = 1000 mg pangamic acid per kg of feed; not affected, same as control group; cited from earlier work
ascites [4] = settings: coenzyme Q added to high-calorie pelletized feed, growth rate higher than 50 g/day; cited from earlier work

CN(C)CC(=O)O [DMG, N,N-dimethylglycine]
Mortality (%) ([1]; 26-day test, 15° C, feed enriched with 5% corn oil): 6.25%
Growth rate (g/d) Phase I (days 1-15) ([1]; days 1-15): 70 g/day
Commercial feed conversion FCR I (days 1-15) ([1]; days 1-15, includes feed of birds that died): 2.23
Actual feed conversion FCR I (days 1-15) ([1]; days 1-15, living birds only): 2.07
Growth rate (g/d) Total (days 1-26) ([1]; days 1-26): 77 g/day
Commercial feed conversion FCR total (days 1-26) ([1]; days 1-26, includes feed of birds that died): 2.19
Actual feed conversion FCR total (days 1-26) ([1]; days 1-26, living birds only): 2.09
Growth rate (g/d) Phase II (days 15-26) ([1]; days 15-26): 87 g/day
Commercial feed conversion FCR II (days 15-26) ([1]; days 15-26, includes feed of birds that died): 2.17
Actual feed conversion FCR II (days 15-26) ([1]; days 15-26, living birds only): 2.13
Ascites (%) (ascites [2]; 167 mg DMG per kg feed, 26-day test, 15° C): 6.25%
AHI, all animals (ascites heart index) (ascites [2]; 167 mg DMG per kg feed, autopsy, all animals): 0.242
AHI, surviving animals (ascites heart index) (ascites [2]; 167 mg DMG per kg feed, autopsy, surviving animals): 0.241
Influence DMG (%) on AHI, all animals (ascites [2]; versus control, all animals): −17.5%
Influence DMG (%) on AHI, surviving animals (ascites [2]; versus control, surviving animals): −19.2%

CN(C)CC(=O)OC[C@@H](O)[C@@H](O)[C@H](O)[C@@H](O)C(=O)O [pangamic acid, 6-O-(dimethylaminoacetyl)-D-gluconic acid]
feed conversion rate [3]: about 2.5

coenzyme Q
mortality due to ascites (ascites [4]): reduced considerably
